Measurements published in ChEMBL document CHEMBL1201862, “PubChem BioAssay data set” (2004).
Activity calls are given as the source filed them.

How the values were obtained:
[1] = target: Heat shock protein HSP 90-alpha (Homo sapiens, UniProt P07900); format: functional, organism-based
Cytochrome P450 2D6 = Cytochrome P450 2D6 (Homo sapiens, UniProt P10635);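 also: CYP2D6 member of a cytochrome P450 panel assay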
Cytochrome P450 3A4 = Cytochrome P450 3A4 (Homo sapiens, UniProt P08684);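 also: CYP3A4 tested as one member of a cytochrome P450 panel screen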
Chain of Cytochrome P450 3A4 (P08684 whole entry): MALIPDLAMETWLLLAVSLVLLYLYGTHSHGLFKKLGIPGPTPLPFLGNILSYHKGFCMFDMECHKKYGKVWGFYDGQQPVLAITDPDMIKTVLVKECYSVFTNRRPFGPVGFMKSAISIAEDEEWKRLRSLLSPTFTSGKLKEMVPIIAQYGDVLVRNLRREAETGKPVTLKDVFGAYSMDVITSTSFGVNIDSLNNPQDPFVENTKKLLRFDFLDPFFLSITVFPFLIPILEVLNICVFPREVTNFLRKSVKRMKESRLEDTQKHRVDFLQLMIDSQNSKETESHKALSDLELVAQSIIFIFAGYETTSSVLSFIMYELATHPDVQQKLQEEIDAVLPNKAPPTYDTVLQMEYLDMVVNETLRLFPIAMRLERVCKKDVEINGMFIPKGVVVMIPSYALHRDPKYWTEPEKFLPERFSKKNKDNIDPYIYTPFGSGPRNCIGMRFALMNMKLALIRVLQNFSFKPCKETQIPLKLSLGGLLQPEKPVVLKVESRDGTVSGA

Cytochrome P450 2C9 = Cytochrome P450 2C9 (Homo sapiens, UniProt P11712)
Chain of Cytochrome P450 2C9 (P11712 whole entry): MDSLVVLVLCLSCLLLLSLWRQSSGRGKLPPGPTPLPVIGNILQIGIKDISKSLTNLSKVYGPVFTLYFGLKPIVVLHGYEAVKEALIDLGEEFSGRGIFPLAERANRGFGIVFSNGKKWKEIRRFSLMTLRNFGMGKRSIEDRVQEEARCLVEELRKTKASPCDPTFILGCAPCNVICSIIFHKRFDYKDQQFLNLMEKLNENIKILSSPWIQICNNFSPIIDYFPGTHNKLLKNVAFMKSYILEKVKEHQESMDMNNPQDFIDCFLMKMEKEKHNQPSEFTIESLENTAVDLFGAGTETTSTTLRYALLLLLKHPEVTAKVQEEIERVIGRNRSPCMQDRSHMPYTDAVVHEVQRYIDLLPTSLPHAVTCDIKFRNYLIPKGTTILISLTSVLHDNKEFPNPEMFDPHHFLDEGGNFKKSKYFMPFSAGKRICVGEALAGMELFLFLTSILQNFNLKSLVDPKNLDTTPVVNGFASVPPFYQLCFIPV

[2] = target: T1, Short transient receptor potential channel 4 (Mus musculus, UniProt Q9QUQ5); assay: mouse TRPC4 channel activators, dose response, cell-based, HEK293 TRPC4/mu-opioid, Fluo-4 calcium (AID 434937); format: functional
T1 sequence (Q9QUQ5 whole entry): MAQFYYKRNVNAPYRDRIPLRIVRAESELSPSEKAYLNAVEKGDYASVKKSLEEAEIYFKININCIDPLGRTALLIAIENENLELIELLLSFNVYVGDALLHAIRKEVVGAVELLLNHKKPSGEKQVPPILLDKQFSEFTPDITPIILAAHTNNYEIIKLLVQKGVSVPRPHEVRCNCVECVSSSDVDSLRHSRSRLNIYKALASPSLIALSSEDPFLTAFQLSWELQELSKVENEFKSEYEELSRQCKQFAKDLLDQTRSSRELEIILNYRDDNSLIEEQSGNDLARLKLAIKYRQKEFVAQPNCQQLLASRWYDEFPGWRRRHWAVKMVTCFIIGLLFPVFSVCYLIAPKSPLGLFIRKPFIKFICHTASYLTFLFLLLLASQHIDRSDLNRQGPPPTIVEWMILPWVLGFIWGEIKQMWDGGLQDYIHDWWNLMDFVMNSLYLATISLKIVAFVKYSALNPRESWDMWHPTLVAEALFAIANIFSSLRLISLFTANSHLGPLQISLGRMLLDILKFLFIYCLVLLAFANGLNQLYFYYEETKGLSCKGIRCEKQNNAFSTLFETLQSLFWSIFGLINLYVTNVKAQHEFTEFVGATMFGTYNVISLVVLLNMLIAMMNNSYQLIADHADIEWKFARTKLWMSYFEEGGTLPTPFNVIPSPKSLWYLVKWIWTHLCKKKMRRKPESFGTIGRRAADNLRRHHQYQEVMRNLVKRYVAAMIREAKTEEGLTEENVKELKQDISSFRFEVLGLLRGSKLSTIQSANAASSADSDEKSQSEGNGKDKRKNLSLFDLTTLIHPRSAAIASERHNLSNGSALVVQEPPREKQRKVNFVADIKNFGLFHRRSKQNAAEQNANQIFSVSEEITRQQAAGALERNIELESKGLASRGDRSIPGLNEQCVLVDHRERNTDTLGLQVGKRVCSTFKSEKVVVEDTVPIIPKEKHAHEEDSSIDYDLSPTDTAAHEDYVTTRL

P388/ADR = assay: cells; format: functional; conditions: Mus musculus
SN12K1 = assay: cells; format: functional; conditions: Homo sapiens
P388 = assay: cells; format: functional; conditions: Mus musculus
Paired box protein Pax-8 = Paired box protein Pax-8 (Homo sapiens, UniProt Q06710); assay: inhibitors of PAX8-driven TPO luciferase reporter, dose response, RMG-I cells, cherry-pick (AID 687027); format: functional, cell-based;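 also: luciferase reporter driven by Pax8 target thyroperoxidase promoter measured by SteadyGlo luminescence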
Chain of Paired box protein Pax-8 (Q06710 whole entry): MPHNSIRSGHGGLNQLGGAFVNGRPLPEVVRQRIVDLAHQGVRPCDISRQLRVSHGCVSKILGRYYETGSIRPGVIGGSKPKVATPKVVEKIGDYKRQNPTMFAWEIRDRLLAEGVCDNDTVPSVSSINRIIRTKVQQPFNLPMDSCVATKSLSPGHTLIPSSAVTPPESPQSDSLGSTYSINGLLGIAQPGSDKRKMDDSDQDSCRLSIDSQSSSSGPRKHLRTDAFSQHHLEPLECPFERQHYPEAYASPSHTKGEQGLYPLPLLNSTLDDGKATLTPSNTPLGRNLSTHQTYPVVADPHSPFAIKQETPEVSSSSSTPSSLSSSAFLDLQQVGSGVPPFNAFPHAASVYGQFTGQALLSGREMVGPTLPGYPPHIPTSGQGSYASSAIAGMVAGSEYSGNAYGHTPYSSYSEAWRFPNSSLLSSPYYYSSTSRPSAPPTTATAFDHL

Vero = assay: cells; format: functional; conditions: Chlorocebus sabaeus
BJ [3] = assay: cytotoxicity toward BJ-TERT fibroblasts, dose response, cell-based, RAS-independent, luminescence (AID 1933); format: functional; conditions: Homo sapiens
BJ [4] = assay: cells; format: functional, cell-based; conditions: Homo sapiens
BJ [5] = assay: cytotoxicity toward BJ-TERT-LT-ST fibroblasts, dose response, cell-based, RAS-independent, luminescence (AID 1935); format: functional; conditions: Homo sapiens;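 also: BJ fibroblasts immortalized with TERT plus LT and ST oncogenes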
[6] = cytotoxicity toward DRD oncogenic fibroblasts, dose response, cell-based, non-viral oncogenic, luminescence (AID 1934); format: functional; conditions: Homo sapiens
[7] = Luminescence Cell-Based Dose Confirmation HTS to Identify Activators of 5'UTR Stem-Loop Driven Alpha-Synuclein mRNA Translation in H4 Neuroglioblastoma Cells. [Related pubchem assays: 1829 (Project Summary), 1814 (Primary HTS)]; format: functional
[8] = Luminescence Cell-Based Dose Response HTS to Identify Activators of Luciferase Translation or Activity in H4 […] Cells. [Related pubchem assays: 1829 (Project Summary), 1814 (Primary HTS)]; format: functional
H4 = assay: Luminescence Cell-Based Dose Response HTS to Identify Activators of 5'UTR Stem-Loop Driven Prion Protein mRNA Translation in H4 Neuroglioblastoma Cells. [Related pubchem assays: 1829 (Project Summary), 1814 (Primary HTS)]; format: functional; conditions: Homo sapiens
[9] = target: T2, Low molecular weight phosphotyrosine protein phosphatase (Homo sapiens, UniProt P24666); format: functional; conditions: read-out: IC50_Mean;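 also: Dose-response confirmation assay measuring inhibition of LMPTP enzyme activity by fluorescence intensity read-out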
T2 sequence (P24666 whole entry): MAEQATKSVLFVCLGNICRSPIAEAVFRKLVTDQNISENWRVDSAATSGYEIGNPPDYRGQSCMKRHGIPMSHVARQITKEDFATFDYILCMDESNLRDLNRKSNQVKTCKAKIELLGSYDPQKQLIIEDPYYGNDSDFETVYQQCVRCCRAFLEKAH

Chain of Cytochrome P450 2D6 (P10635 whole entry): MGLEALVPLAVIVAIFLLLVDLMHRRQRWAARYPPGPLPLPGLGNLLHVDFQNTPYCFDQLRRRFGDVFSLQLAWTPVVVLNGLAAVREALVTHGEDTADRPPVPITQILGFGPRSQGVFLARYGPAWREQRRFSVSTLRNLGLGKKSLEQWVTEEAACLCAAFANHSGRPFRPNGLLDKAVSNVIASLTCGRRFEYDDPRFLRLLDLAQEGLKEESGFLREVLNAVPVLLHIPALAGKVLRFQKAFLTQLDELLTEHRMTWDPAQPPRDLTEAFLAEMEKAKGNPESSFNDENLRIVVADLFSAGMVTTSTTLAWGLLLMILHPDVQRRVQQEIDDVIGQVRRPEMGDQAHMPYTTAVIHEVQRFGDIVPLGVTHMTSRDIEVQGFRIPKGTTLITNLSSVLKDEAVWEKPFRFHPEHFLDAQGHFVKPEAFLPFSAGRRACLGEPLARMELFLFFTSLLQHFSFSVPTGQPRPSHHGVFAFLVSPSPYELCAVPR

Structure (SMILES): O=C1CCCN1CCC1CCN(C2CC(=O)N(c3ccc(Cl)cc3)C2=O)CC1 (centres undefined)
- AC50 [1]: 7.56 µM (active)

Structure (SMILES): O=C(c1cnn(-c2ccccc2)c1)c1ccc2ccccc2c1O
- AC50 (Cytochrome P450 2D6): 7.08 µM (inconclusive)
- AC50 (Cytochrome P450 3A4): 17.8 µM (inconclusive)
- AC50 (Cytochrome P450 2C9): inconclusive

Structure (SMILES): Cn1c(N2CCN(C(=O)Nc3ccc(F)cc3)CC2)nc2ccccc21
- EC50 [2]: 6.68 µM (active)

Structure (SMILES): C=Cc1cc(OC)c2c(c1)c(=O)oc1c2cc(OC)c2c(O)ccc(C3OC(C)C(O)C(C)(O)C3O)c21 (centres undefined)
- GI50 (P388/ADR): 0.0225 µM (active)
- GI50 (SN12K1): 0.0269 µM (active)
- GI50 (P388): 0.0225 µM (active)
- AC50 (Paired box protein Pax-8): < 260 nM (active)

Structure (SMILES): CCOC(=O)C1=C(N)N=C(N)C1=Nc1ccc(OC)cc1
- CC50 (Vero): 11.1 µM (active)

Structure (SMILES): C=C1CCCC(C)(C)[C@@H]1CC/C(C)=C/Cn1c2cccc(=O)c-2nc2ccccc21
- GI50 (P388/ADR): 0.229 µM (active)
- GI50 (SN12K1): 1.48 µM (inactive)
- GI50 (P388): 0.569 µM (active)

Structure (SMILES): CCCCCCCCCCCC1CCCC(C)N1 (centres undefined)
- GI50 (P388/ADR): 12.4 µM (inactive)
- GI50 (SN12K1): 28.3 µM (inactive)
- GI50 (P388): 10.5 µM (inactive)

Structure (SMILES): C[C@@]12CC[C@H]3[C@@H]4CCC(=O)N[C@@]4(C)CC[C@@H]3[C@@]1(C)CC[C@H](OC(=O)Cc1ccc(N(CCCl)CCCl)cc1)C2
- GI50 (P388/ADR): 14.7 µM (inactive)
- GI50 (SN12K1): 16.9 µM (inactive)
- GI50 (P388): 10.6 µM (inactive)

Structure (SMILES): Cc1cc(-c2ccc(/N=N/c3ccc4c(S(=O)(=O)O)cc(S(=O)(=O)O)c(N)c4c3O)c(C)c2)ccc1/N=N/c1ccc2c(S(=O)(=O)O)cc(S(=O)(=O)O)c(N)c2c1O
- GI50 (P388/ADR): > 100 µM (inactive)
- GI50 (SN12K1): > 100 µM (inactive)
- GI50 (P388): > 100 µM (inactive)

Structure (SMILES): CC(/C=N/NC(=O)c1[nH]nc2c1CCC2)=C\c1ccccc1
- EC50 (BJ [3]): 346 nM (inconclusive)
- EC50 (BJ [4]): 25.5 µM (inconclusive)
- EC50 (BJ [5]): 1.03 µM (inconclusive)
- EC50 [6]: 430 nM (active)
- CC50 (Vero): < 0.05 µM (active)

Structure (SMILES): CCn1cc(C(=O)O)c(=O)c2cnc(N3CCN(C(=S)Nc4ccccc4Cl)CC3)nc21
- EC50 [7]: > 120 µM (not active)
- EC50 [8]: > 120 µM (not active)
- EC50 (H4): > 120 µM (not active)
- IC50 [9]: 35.9 µM (inactive)

Structure (SMILES): O=c1n(CC2CO2)c(=O)n(CC2CO2)c(=O)n1CC1CO1 (centres undefined) [TEROXIRONE]
- GI50 (P388/ADR): 1.91 µM (inactive)
- GI50 (SN12K1): 35.6 µM (inactive)
- GI50 (P388): 1.61 µM (inactive)
